Calls of active or inactive are those of the source. The calls are words filed in the database; no cut-off is given here.
Experiments:
Hepatitis B virus [1] = test: Antiviral activity against Hepatitis B virus infected in human HepaRG cells assessed as inhibition of […] measured on day 11 post-infection by chemiluminescence immunostaining assay; assay type: functional, organism-based; conditions: 264 h
Hepatitis B virus [2] = test: (§1) Antiviral activity against Hepatitis B virus infected in human HepaRG cells assessed as inhibition of […] under CYP450 restriction pre-treated for 1 hr with CYP450 inhibitors ABT and SKF-525A on day 5 post-infection followed by removal of media and supplemented with fresh media containing diluted compound and further incubated for 3 days then followed by treatment for 1 hr with CYP450 inhibitors ABT and SKF-525A on day 8 post-infection followed by removal of media and supplemented with fresh media containing diluted compound and further incubated for 3 days in presence of 25 uM SKF-525A and measured on day 11 post-infection by chemiluminescence immunostaining assay; assay type: functional, organism-based
[3] = Half life in human primary hepatocytes at 1 uM measured up to 3 hrs by LC-MS/MS analysis; assay type: ADME, cell-based, Hepatocyte
[4] = Half life in human primary hepatocytes at 1 uM measured up to 3 hrs under CYP450 restriction in presence of CYP450 inhibitiors ABT and SKF-525A by LC-MS/MS analysis; assay type: ADME, cell-based, Hepatocyte
Hepatitis B virus [5] = test: (§2) Antiviral activity against Hepatitis B virus infected in human primary hepatocytes assessed as reduction in HbsAg secretion level at 50 uM treated for 1 hr on day 5 post-infection followed by removal of media and supplemented with fresh media and further incubated for 3 days then followed by treatment for 1 hr on day 8 post-infection followed by removal of media and supplemented with fresh media and further incubated for 3 days in presence of 10 mM ABT and measured on day 11 post-infection by chemiluminescence immunostaining assay relative to control; assay type: functional, organism-based; conditions: Primary hepatocyte
HepaRG [6] = test: (§3) Cytotoxicity against human HepaRG cells infected with HBV assessed as reduction in cell viability at 50 uM treated for 1 hr on day 5 post-infection followed by removal of media and supplemented with fresh media and further incubated for 3 days then followed by treatment for 1 hr on day 8 post-infection followed by removal of media and supplemented with fresh media and further incubated for 3 days in presence of 10 mM ABT and measured on day 11 post-infection by Celltiter-Glo assay; assay type: cell-based
Hepatitis B virus [7] = test: as §2, with “in human HepaRG cells assessed as” for “in human primary hepatocytes assessed as”, “for 3 B37days then followed” for “for 3 days then followed”, “immunostaining assay” for “immunostaining assay relative to control”; assay type: functional, organism-based
Cytochrome P450 3A4 [8] = biological target: T1, Cytochrome P450 3A4 (Homo sapiens, UniProt P08684); test: (§4) Inhibition of CYP3A4 in HBV-infected human primary hepatocytes at 5 to 100 uM using luciferin-IPA as substrate treated for 1 hr on day 5 post-infection followed by removal of media and supplemented with fresh media and further incubated for 3 days then followed by treatment for 1 hr on day 8 post-infection followed by removal of media and supplemented with fresh media and further incubated for 3 days and measured on day 11 post-infection by P450-Glo chemiluminescent assay; assay type: ADME, tissue-based, Primary hepatocyte; conditions: dose 5-100 µM
T1 sequence (P08684 whole entry): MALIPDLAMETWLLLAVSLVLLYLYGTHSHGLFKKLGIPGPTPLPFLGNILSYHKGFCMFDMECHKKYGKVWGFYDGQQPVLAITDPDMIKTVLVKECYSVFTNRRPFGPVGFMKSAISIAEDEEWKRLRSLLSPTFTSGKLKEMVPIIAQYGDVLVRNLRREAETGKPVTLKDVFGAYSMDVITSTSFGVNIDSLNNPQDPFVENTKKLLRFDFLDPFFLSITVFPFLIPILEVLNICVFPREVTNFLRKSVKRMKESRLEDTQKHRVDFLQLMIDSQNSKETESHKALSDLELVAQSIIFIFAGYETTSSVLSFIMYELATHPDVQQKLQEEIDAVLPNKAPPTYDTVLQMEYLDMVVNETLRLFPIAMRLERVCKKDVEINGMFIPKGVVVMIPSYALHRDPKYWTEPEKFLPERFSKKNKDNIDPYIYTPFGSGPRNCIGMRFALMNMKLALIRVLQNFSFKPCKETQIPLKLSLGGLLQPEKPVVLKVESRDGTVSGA

Cytochrome P450 2C9 [9] = biological target: T2, Cytochrome P450 2C9 (Homo sapiens, UniProt P11712); test: as §4, with “CYP2C9” for “CYP3A4”, “luciferin-H” for “luciferin-IPA”; assay type: ADME, tissue-based, Primary hepatocyte; conditions: dose 5-100 µM
T2 sequence (P11712 whole entry): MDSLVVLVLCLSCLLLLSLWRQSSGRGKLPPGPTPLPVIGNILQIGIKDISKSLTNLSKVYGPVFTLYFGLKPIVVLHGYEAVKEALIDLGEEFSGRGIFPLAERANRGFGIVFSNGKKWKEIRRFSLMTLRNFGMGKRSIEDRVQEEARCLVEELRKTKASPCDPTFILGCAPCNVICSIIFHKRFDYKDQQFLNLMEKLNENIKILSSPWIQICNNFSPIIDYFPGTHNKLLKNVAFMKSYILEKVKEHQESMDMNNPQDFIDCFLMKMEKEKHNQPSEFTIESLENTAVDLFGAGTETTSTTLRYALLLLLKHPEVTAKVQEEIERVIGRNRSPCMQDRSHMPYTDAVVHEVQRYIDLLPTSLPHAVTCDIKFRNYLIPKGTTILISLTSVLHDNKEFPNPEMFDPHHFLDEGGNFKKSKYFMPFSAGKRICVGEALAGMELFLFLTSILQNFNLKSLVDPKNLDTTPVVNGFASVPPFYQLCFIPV

Cytochrome P450 1A2 [10] = biological target: T3, Cytochrome P450 1A2 (Homo sapiens, UniProt P05177); test: as §4, with “CYP1A2” for “CYP3A4”, “hepatocytes cells” for “hepatocytes”, “luciferin-1A2” for “luciferin-IPA”; assay type: ADME, tissue-based, Primary hepatocyte; conditions: dose 5-100 µM
T3 sequence (P05177 whole entry): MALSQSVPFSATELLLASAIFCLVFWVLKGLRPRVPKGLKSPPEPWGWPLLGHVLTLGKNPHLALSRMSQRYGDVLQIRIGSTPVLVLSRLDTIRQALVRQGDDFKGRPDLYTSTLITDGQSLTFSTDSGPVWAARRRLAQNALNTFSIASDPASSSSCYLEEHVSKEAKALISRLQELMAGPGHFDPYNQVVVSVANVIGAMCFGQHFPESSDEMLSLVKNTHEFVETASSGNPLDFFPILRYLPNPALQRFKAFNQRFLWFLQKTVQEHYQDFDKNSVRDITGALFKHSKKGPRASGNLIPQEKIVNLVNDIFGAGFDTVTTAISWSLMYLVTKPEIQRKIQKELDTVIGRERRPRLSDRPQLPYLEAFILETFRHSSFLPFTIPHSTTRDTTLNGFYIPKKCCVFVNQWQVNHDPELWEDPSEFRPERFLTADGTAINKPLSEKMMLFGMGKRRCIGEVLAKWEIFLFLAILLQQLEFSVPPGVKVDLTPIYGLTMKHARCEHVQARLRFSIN

CYP3A4 [11] = biological target: T4, CYP3A4 (Homo sapiens, UniProt P08684); test: (§5) Inhibition of CYP3A4 in HBV-infected human HepaRG cells at 50 uM using luciferin-IPA as substrate treated for 1 hr on day 5 post-infection followed by removal of media and supplemented with fresh media and further incubated for 3 days then followed by treatment for 1 hr on day 8 post-infection followed by removal of media and supplemented with fresh media and further incubated for 3 days in presence of 10 mM ABT and measured on day 11 post-infection by P450-Glo chemiluminescent assay relative to control; assay type: ADME, tissue-based; conditions: probe luciferin-IPA, with ABT 10 mM
T4 sequence (P08684 whole entry): as the sequence (P08684 whole entry) above

CYP3A4 [12] = biological target: T4, CYP3A4; test: (§6) Inhibition of CYP3A4 in HBV-infected human HepaRG cells at 50 uM using luciferin-IPA as substrate treated for 1 hr on day 5 post-infection followed by removal of media and supplemented with fresh media and further incubated for 3 days in presence of 10 mM ABT by P450-Glo chemiluminescent assay relative to control; assay type: ADME, tissue-based; conditions: probe luciferin-IPA, with ABT 10 mM
CYP2C9 [13] = biological target: T5, CYP2C9 (Homo sapiens, UniProt P11712); test: as §5, with “CYP2C9” for “CYP3A4”, “luciferin-H” for “luciferin-IPA”; assay type: ADME, tissue-based; conditions: probe luciferin-H, with ABT 10 mM
T5 sequence (P11712 whole entry): as the sequence (P11712 whole entry) above

CYP2C9 [14] = biological target: T5, CYP2C9; test: as §6, with “CYP2C9” for “CYP3A4”, “luciferin-H” for “luciferin-IPA”; assay type: ADME, tissue-based; conditions: probe luciferin-H, with ABT 10 mM
CYP1A2 [15] = biological target: T6, CYP1A2 (Homo sapiens, UniProt P05177); test: as §5, with “CYP1A2” for “CYP3A4”, “luciferin-1A2” for “luciferin-IPA”; assay type: ADME, tissue-based; conditions: probe luciferin-1A2, with ABT 10 mM
T6 sequence (P05177 whole entry): T3 sequence (P05177 whole entry)

CYP1A2 [16] = biological target: T6, CYP1A2; test: as §6, with “CYP1A2” for “CYP3A4”, “luciferin-1A2” for “luciferin-IPA”; assay type: ADME, tissue-based; conditions: probe luciferin-1A2, with ABT 10 mM
CYP3A4 [17] = biological target: T4, CYP3A4; test: as §5, with “days” for “days in presence of 10 mM ABT”; assay type: ADME, tissue-based; conditions: probe luciferin-IPA
CYP3A4 [18] = biological target: T4, CYP3A4; test: Inhibition of CYP3A4 in HBV-infected human HepaRG cells at 50 uM using luciferin-IPA as substrate treated for 1 hr on day 5 post-infection followed by removal of media and supplemented with fresh media and further incubated for 3 days by P450-Glo chemiluminescent assay relative to control; assay type: ADME, tissue-based; conditions: probe luciferin-IPA
CYP2C9 [19] = biological target: T5, CYP2C9; test: as §5, with “CYP2C9” for “CYP3A4”, “luciferin-H” for “luciferin-IPA”, “days” for “days in presence of 10 mM ABT”; assay type: ADME, tissue-based; conditions: probe luciferin-H
CYP2C9 [20] = biological target: T5, CYP2C9; test: Inhibition of CYP2C9 in HBV-infected human HepaRG cells at 50 uM using luciferin-H as substrate treated for 1 hr on day 5 post-infection followed by removal of media and supplemented with fresh media and further incubated for 3 days by P450-Glo chemiluminescent assay relative to control; assay type: ADME, tissue-based; conditions: probe luciferin-H
CYP1A2 [21] = biological target: T6, CYP1A2; test: as §5, with “CYP1A2” for “CYP3A4”, “luciferin-1A2” for “luciferin-IPA”, “days” for “days in presence of 10 mM ABT”; assay type: ADME, tissue-based; conditions: probe luciferin-1A2
CYP1A2 [22] = biological target: T6, CYP1A2; test: Inhibition of CYP1A2 in HBV-infected human HepaRG cells at 50 uM using luciferin-1A2 as substrate treated for 1 hr on day 5 post-infection followed by removal of media and supplemented with fresh media and further incubated for 3 days by P450-Glo chemiluminescent assay relative to control; assay type: ADME, tissue-based; conditions: probe luciferin-1A2
HepaRG [23] = test: as §3, with “5 to 100” for “50”, “days” for “days in presence of 10 mM ABT”; assay type: cell-based; conditions: dose 5-100 µM
Cytochrome P450 3A4 [24] = biological target: T1, Cytochrome P450 3A4; test: as §4, with “HepaRG cells” for “primary hepatocytes”; assay type: ADME, tissue-based; conditions: dose 5-100 µM
Cytochrome P450 2C9 [25] = biological target: T2, Cytochrome P450 2C9; test: as §4, with “CYP2C9” for “CYP3A4”, “HepaRG cells” for “primary hepatocytes”, “luciferin-H” for “luciferin-IPA”; assay type: ADME, tissue-based; conditions: dose 5-100 µM
Cytochrome P450 1A2 [26] = biological target: T3, Cytochrome P450 1A2; test: as §4, with “CYP1A2” for “CYP3A4”, “HepaRG cells” for “primary hepatocytes”, “luciferin-1A2” for “luciferin-IPA”; assay type: ADME, tissue-based; conditions: dose 5-100 µM
Hepatocyte = test: as §3, with “primary hepatocytes” for “HepaRG cells”, “assay relative to control” for “assay”; assay type: cell-based
Hepatitis B virus [27] = test: as §2, with “25” for “50”, “assay” for “assay relative to control”; assay type: functional, Primary hepatocyte; set-up: scale not given: the % may be the effect or the level left
[28] = as §1, with “Ratio of EC50 for antiviral activity against” for “Antiviral activity against”, “assessed as fold change for inhibition of HBV DNA replication under normal condition to EC50 for inhibition of” for “assessed as inhibition of”; assay type: functional; conditions: time 6 day
[29] = Cytotoxicity against human HepaRG cells assessed as effect on cell viability; assay type: cell-based

SMILES: COC(=O)C1=C(C)NC(c2ncc(F)cc2F)=N[C@H]1c1ccc(F)cc1Cl
- EC50 (Hepatitis B virus [1]): 0.22 µM
- EC50 (Hepatitis B virus [2]): 0.26 µM
- half-life at 1 µM [3]: 3.15 h
- half-life at 1 µM [4]: 7.18 h

SMILES: CCCC(C(=O)OCCN(CC)CC)(c1ccccc1)c1ccccc1 [PROADIFEN]
- Activity (Hepatitis B virus [5]): inactive
- Activity (HepaRG [6]): Non-Toxic
- Activity (Hepatitis B virus [7]): inactive
- inhibition (INH) (Cytochrome P450 3A4 [8]): Active
- inhibition (INH) (Cytochrome P450 2C9 [9]): Active
- inhibition (INH) (Cytochrome P450 1A2 [10]): Active
- inhibition at 1 h, 50 µM (CYP3A4 [11]): 90.3%
- inhibition at 1 h, 50 µM (CYP3A4 [12]): 83.3%
- inhibition at 1 h, 50 µM (CYP2C9 [13]): 82.1%
- inhibition at 1 h, 50 µM (CYP2C9 [14]): 36.9%
- inhibition at 1 h, 50 µM (CYP1A2 [15]): 88.8%
- inhibition at 1 h, 50 µM (CYP1A2 [16]): 39.2%
- inhibition at 1 h, 50 µM (CYP3A4 [17]): 93%
- inhibition at 1 h, 50 µM (CYP3A4 [18]): 80.3%
- inhibition at 1 h, 50 µM (CYP2C9 [19]): 42.2%
- inhibition at 1 h, 50 µM (CYP2C9 [20]): 21.4%
- inhibition at 1 h, 50 µM (CYP1A2 [21]): 30.8%
- inhibition at 1 h, 50 µM (CYP1A2 [22]): 2.2%
- Activity (HepaRG [23]): Non-Toxic
- inhibition (INH) (Cytochrome P450 3A4 [24]): Active
- inhibition (INH) (Cytochrome P450 2C9 [25]): Active
- inhibition (INH) (Cytochrome P450 1A2 [26]): Active
- Activity (Hepatocyte): 10%
- Activity (Hepatitis B virus [27]): 20%

SMILES: COc1ccccc1/C(Br)=C(\NC(=O)c1ccc([N+](=O)[O-])cc1)C(=O)N1CCCCC1
- EC50 (Hepatitis B virus [1]): 5.7 µM
- EC50 (Hepatitis B virus [2]): 0.78 µM
- Ratio EC50 [28]: 7.3
- half-life at 1 µM [3]: 0.0483 h
- half-life at 1 µM [4]: > 9.33 h
- CC50 [29]: > 30 µM

SMILES: O=C(Nc1ccc(F)cc1)c1ccc(CF)c(S(=O)(=O)N2CCOCC(O)C2)c1 (centres undefined)
- EC50 (Hepatitis B virus [1]): 2.1 µM
- EC50 (Hepatitis B virus [2]): 0.2 µM
- Ratio EC50 [28]: 11
- half-life at 1 µM [3]: 0.342 h
- half-life at 1 µM [4]: 2.65 h
- CC50 [29]: > 30 µM

SMILES: CCOC(=O)C1=C(CN2CCOCC2)NC(c2nccs2)=NC1c1ccc(F)cc1Br (centres undefined)
- EC50 (Hepatitis B virus [1]): 0.59 µM
- EC50 (Hepatitis B virus [2]): 0.011 µM
- half-life at 1 µM [3]: 0.128 h
- half-life at 1 µM [4]: > 9.33 h

Source: ChEMBL document CHEMBL4725437, “P450s under Restriction (PURE) Screen Using HepaRG and Primary Human Hepatocytes for Discovery of Novel HBV Antivirals” (ACS Med Chem Lett, 2020)
